Measurements: paper PMC4366722 (Iranian Journal of Basic Medical Sciences, 2015)
Entries after “also recorded” stand apart in the source; their conditions may differ.

Tested on: mushroom tyrosinase
Test: Diphenolase
Type: biochemical
Details: diphenolase activity

With `Nc1ccccc1C(=O)O` [2-amino benzoic acid] as the compound, how does the “Inhibition (reversibility)” value read?
The value was “reversibly”.

And the Inhibition type?
Its Inhibition type is “noncompetitive”.

What does the source list for `Nc1ccc(C(=O)O)cc1` [4-amino benzoic acid]?
Inhibition (reversibility): reversibly; Inhibition type: noncompetitive

With `O=C(O)c1cccnc1` [Nicotinic acid, nicotinic acid] as the compound, how does the “Inhibition (reversibility)” value read?
The value was “reversibly”.

And the Inhibition type?
Its Inhibition type is “competitive”.

Which “Inhibition (reversibility)” value does the source give for `O=C(O)c1ccccn1` [Picolinic acid, picolinic acid] here?
The value was “reversibly”.

And the Inhibition type?
The Inhibition type was “competitive”.

Tested on: Melanoma cell lines (NCBI Code: C136; human skin)
Test: Cytotoxicity assay
Type: cell-based
Details: melanoma cells, 24 hr, MTT

Which “effect on melanoma cell viability / cytotoxicity (in words)” value does the source give for `Nc1ccccc1C(=O)O` [2-amino benzoic acid] here?
The value was “no significant change”.

`Nc1ccc(C(=O)O)cc1` [4-amino benzoic acid] was tested. Which “effect on melanoma cell viability / cytotoxicity (in words)” value did it give?
The value was “no significant change”.

With `O=C(O)c1cccnc1` [Nicotinic acid, nicotinic acid] as the compound, how does the “effect on melanoma cell viability / cytotoxicity (in words)” value read?
The value was “declined remarkably; also recorded: cytotoxic effects”.

`O=C(O)c1ccccn1` [Picolinic acid, picolinic acid] was tested. Which “effect on melanoma cell viability / cytotoxicity (in words)” value did it give?
The value was “declined remarkably; also recorded: cytotoxic effects”.
